The values that follow come from US20220031710A1, “USE OF ERK5 INHIBITORS FOR TREATING GLIOMAS IN PEDIATRIC SUBJECTS” (UNIVERSITY OF PITTSBURGH - OF THE COMMONWEALTH SYSTEM OF …, priority 2019, published 2022).

The structures appear in SMILES notation.

What all share (assay type): cell-based, human
The test system of assay [1] is DIPG-IV cells. As to the kind of experiment: EC50 of ERK5-IN-1 in DIPG-IV cells expressing ERK5-HA, ERK5-HA T733E or MYC S62D. The protocol:
Wildtype human H3F3A cDNA was ligated with a puromycin selection marker and a self-cleaving T2A sequence using Gibson Assembly Cloning and cloned into pLV with an EF1a promoter. HA-RASAL1 (NM_001193520.1) with an N-terminal HA tag, MYC (NM_002467.4), or MAPK7 (ERK5, NM_139033) were ligated with T2A mCherry and cloned into pLV under the control of the EF1a promoter. Cloning and plasmid sequence validation were performed by VectorBuilder Services (Santa Clara, Calif. 95050). Site-directed mutagenesis was performed to generate H3F3A K27M, H3F3A G34R, MYC S62D, and ERK5 mutant constructs using the QuikChange II Site-Directed Mutagenesis Kit and manufacturer's protocol (Agilent, Cat #200523, Santa Clara, Calif. 95051). Lentiviral ERK5 GIPZ shRNA plasmids were purchased from Dharmacon (Lafayette, Colo. 80026, Cat #RHS4531-EG5598 glycerol set: V2LHS 202701, V3LHS_366737, V3LHS_366738, V3LHS_366740, V3LHS_640828, V3LHS_640830).
Direct cell counts were performed using the Countess II FL Automated Cell Counter (ThermoFisher Scientific). Alamar blue viability (ThermoFisher Scientific) and the 5-bromo-2′-deoxyuridine (BrdU) incorporated cell proliferation assay (Cell Signaling Technology Cat #6813) were performed using the manufacturer's standard protocol. EC50 curve analysis was performed using raw fluorescent Alamar blue values that were inputted into PRISM 7.0. […]

The next assay has as its system MYC. In words: Western blot of phospho MYC S62 and total MYC in DIPG cells. The note with it: DIPG-IV and SF8628 cells; 500 nM. The protocol:
Cell pellets were lysed in PLC lysis buffer containing protease and phosphatase inhibitors (Roche Inc.). Protein lysates were quantified using the bicinchoninic acid (BCA) assay (Pierce Chemical Co., Rockford, Ill.). 30 μg of total protein lysate was loaded in 10% SDS-PAGE gels and electrophoresed. Proteins were transferred to PVDF membranes using a semi-dry transfer apparatus (Bio-Rad). Membranes were blocked for one hour and probed for various proteins overnight in 5% non-fat milk or 5% BSA in Tris Buffered Saline Solution, 0.5% Tween-20 (TBST) or Phosphate Buffered Saline Solution with 0.5% Tween-20 (PBST). Membranes were washed for 5 mins in TBST (3×) and incubated with horseradish peroxidase-conjugated antibodies specific for the primary antibody (BioRad Laboratories, Inc., CA, USA). Binding was detected using Chemiluminescence Reagent Plus (PerkinElmer Inc., MA, USA).

For assay [2], the system named is DIPG-007, DIPG-IV, SF8628 and DIPG-13p cells. In words: Annexin-PI flow cytometry apoptosis assay. The note with it: for populations in early apoptosis, late apoptosis and necrosis / viable cells (Annexin negative, PI negative): 48 h, vs DMSO vehicle. The protocol: Apoptosis was quantified using the Pacific Blue Annexin V Apoptosis Detection Kit with propidium iodide (BioLegend, San Diego, Calif. Cat #640926). Analysis was performed at the Flow Cytometry Core, Rangos Research Center, UPMC Children's Hospital of Pittsburgh.

Assay [3] concerns DIPG-IV cells. As to the kind of experiment: Cleaved Caspase 3/7 assay in DIPG-IV cells expressing ERK5 constructs. The note with it: 500 nM; DIPG-IV cells expressing ERK5-HA or ERK5-HA T733E vs empty vector.
Another assay has as its system NSCs. In words: Alamar blue viability EC50 in neural stem cells. The protocol:
Human Neural Stem Cells (H9 hESC-Derived) were purchased from Invitrogen and grown in DMEM/F12 containing penicillin/streptomycin/amphotericin B (1% vol/vol) supplemented with N2 (2% vol/vol; Invitrogen), EGF (20 ng/ml; Invitrogen), and FGF-2 (20 ng/ml; Invitrogen). DIPG cell lines (all with the H3K27M mutation) SU-DIPG-IV (DIPG-IV), SU-DIPG-13p (DIPG-13p), and HSJD-DIPG-007 (DIPG-007) were grown and passaged in DIPG medium as previously reported (Grasso et al., Nature medicine 2015; 21:555-9; Nagaraja et al., Cancer cell 2017; 31:635-52 e6; Vinci et al., Nature medicine 2018). SF8628 and immortalized NHAs were grown in DMEM (Invitrogen) supplemented with 10% FBS (Invitrogen). All cell lines were confirmed by STR profiling and tested mycoplasma negative by PCR. All tumor-derived cell lines used are described in Table 2.
Direct cell counts were performed using the Countess II FL Automated Cell Counter (ThermoFisher Scientific). Alamar blue viability (ThermoFisher Scientific) and the 5-bromo-2′-deoxyuridine (BrdU) incorporated cell proliferation assay (Cell Signaling Technology Cat #6813) were performed using the manufacturer's standard protocol. EC50 curve analysis was performed using raw fluorescent Alamar blue values that were inputted into PRISM 7.0. Drug concentrations were log 10 transformed and values normalized to percent viability with respect to vehicle treated cells. […]

The next assay deals with CNMC-XD-760. As to the kind of experiment: Alamar blue viability EC50 in H3 wildtype DIPG cell line. The note with it: CNMC-XD-760 (DIPG histone wildtype H3) compared to H3 mutant DIPG cells and hemispheric pGBM cells; 96 h. The protocol:
(§1) Direct cell counts were performed using the Countess II FL Automated Cell Counter (ThermoFisher Scientific). Alamar blue viability (ThermoFisher Scientific) and the 5-bromo-2′-deoxyuridine (BrdU) incorporated cell proliferation assay (Cell Signaling Technology Cat #6813) were performed using the manufacturer's standard protocol. EC50 curve analysis was performed using raw fluorescent Alamar blue values that were inputted into PRISM 7.0. Drug concentrations were log 10 transformed and values normalized to percent viability with respect to vehicle treated cells. EC50 values were interpolated from a log inhibitor vs. normalized response with variable slope using a least square fit model.

For assay [4], the system named is DIPG-007, DIPG-IV, SF8628 and DIPG-13p cells. In words: Direct Trypan-Blue automated cell count of DIPG cells. The protocol: as §1

In the case of `CCOc1cc(C(=O)N2CCC(N3CCN(C)CC3)CC2)ccc1Nc1ncc2c(n1)N(C1CCCC1)c1ccccc1C(=O)N2C` [ERK5-IN-1, 11-cyclopentyl-2-[[2-ethoxy-4-[[4-(4-methyl-1-piperazinyl)-1-piperidinyl]carbonyl]phenyl]amino]-5,11-dihydro-5-methyl-6H-pyrimido[4,5b][1,4]benzodiazepin-6-one], the “resistance to ERK5-IN-1 (EC50 values)” value with DIPG-IV cells [1] (DIPG-IV cells expressing MYC S62D vs empty vector control) is “promoted resistance”. The EC50 values result in the assay on DIPG-IV cells [1] (DIPG-IV cells expressing wild-type HA-tagged ERK5 or constitutively active ERK5 T733E vs empty vector) is “increased EC50 values”. Moreover, the “phospho and total MYC” value in the assay on MYC is “reduced”. Further, the “populations in early apoptosis, late apoptosis and necrosis” value is “increased” in assay [2] (DIPG-007 and DIPG-IV cells); “increased” in assay [2] (SF8628 and DIPG-13p cells). Also, the “viable cells (Annexin negative, PI negative)” value was “decreased” in assay [2] (DIPG-007 and DIPG-IV cells); “decreased” in assay [2] (SF8628 and DIPG-13p cells). Also, the rates of apoptosis entry in assay [2] (DIPG-007 and DIPG-IV cells, compared to controls) is recorded as “significantly higher rates of apoptosis”. In addition, the apoptosis result in assay [2] (DIPG-13p and SF8628 cells) is “induction of apoptosis”. The “cleaved Caspase 3/7 levels” value with DIPG-IV cells [3] is on record as “reduced cleaved Caspase 3/7 levels”. In addition, the “ERK5-IN-1 EC50 values” in the assay on NSCs (NSCs and NSCs over expressing wildtype H3, compared to H3K27M DIPG and hemispheric pGBM lines) is recorded as “higher”; in the assay with NSCs (NSCs expressing H3K27M), “significantly lower”. For the same molecule, the “EC50 values for ERK5-IN-1” value in the assay with CNMC-XD-760 is recorded as “highest EC50 values”. Further, the cell number result in assay [4] (500 nM, 9 days of treatment, DIPG-007, DIPG-IV, SF8628 cells, vs vehicle) was “significant decreases in cell number”. In addition, the cell growth result in assay [4] (DIPG-13p and SF8628 cells) is on record as “diminished cell growth”.
